Laboratory results taken from patent publication US8945540B2, “Compositions for enhancing the antibacterial activity of myeloperoxidase and methods of use thereof” (Exoxemis, Inc., priority 2008, dated 2015).
Read-outs that look alike come from different tables or passages of the source.

What was measured:
Staphylococcus aureus [1] = experiment: Microbicidal activity of the myeloperoxidase system (p-MPO, glucose oxidase, glucose) with amino acids in the presence of blood, CFU plate counts; synergy determination from these CFU; assay type: cell-based; conditions: for Average Viability CFU/ml 50 min / Log Reduction 50 min: MPO 4.7 U/ml, GO 4.2 U/ml; for Predicted vs Actual: actual CFU as % of predicted value; for Predicted Average of Amino Acids: average of CFU of the individual D- and L-enantiomers; for Actual CFU: racemic mixture, standard conditions of Example 5
Description: Bacterial suspensions, specifically Staphylococcus aureus in this example, were prepared by the shake flask method to achieve late log to early stationary phase growth. Bacteria were grown 24 hours in trypticase soy broth (TSB) at 35° C. The cultures were centrifuged at 4,000 rpm for 10 minutes and the supernatants removed. The pellet was collected and washed twice with sterile 0.9% normal saline (NS). The washed microorganisms were suspended and diluted with normal saline to a 3 McFarland standard, i.e., approximately 10^9 bacteria colony forming units (CFU) per mL. Actual colony counts are confirmed by serial dilutions (10^−1 to 10^−5 or 10^−6) plated on TSA and incubated overnight at 35° C. To obtain an approximate final working target inoculum of 10^7 CFU/mL, 15 microliters of organisms per mL of final reaction mixture are used.
Glucose oxidase (GO) from Aspergillus Niger was purchased from Biozyme, Inc., UK, Cat #GO3A, 270 U/mg). Porcine Myeloperoxidase (p-MPO) (Exoxemis, Inc., Little Rock, Ark. U.S.A., 375 U/mg). Sterile stock solutions of D-glucose and sodium chloride were prepared and used at a final concentration of 150 mM each. L-Lysine hydrochloride (Spectrum Chemical Cat #L1142) was prepared as a 100 mM stock solution. Catalase (Sigma, Cat #C-40) was prepared as a 1% stock solution in sterile 0.9% normal saline. Blood was collected by venipuncture and used as whole blood within the same day.
Staphylococcus aureus were used to give a final target concentration of 2-3×10^7 CFU (7.4 log 10) per mL and venous whole blood was used to give a final concentration of 3%. Glucose was added to the reaction mixtures to a final concentration of 150 mM, which initiated the microbicidal reaction. The final volume of the reaction mixtures was 1 mL. The reactions were allowed to run from 30 minutes to 2 hours, as needed, at room temperature or at 37° C. in a dry bath. At the specified time points the reaction mixtures were treated with 100 microliters of a catalase solution, containing a minimum of 100 units/μL, to consume remaining peroxide and terminate the oxidative killing. Serial dilution plate counts were performed from the contents of each vial in sterile saline and inoculated onto trypticase soy agar (TSA) for quantitative culture. Plates were then incubated at 37° C. and counts taken at 24 hours. […] The results are shown in Table 1, as the average of 2 replicates.
The amino acids alone, in the absence of MPO were tested to rule out their microbicidal activity. The results are shown in Table 2 to Table 6, as the average of 2 replicates.
The amino acid analogues alone, in the absence of MPO, were tested to rule out their microbicidal activity. […]
The effect of two-way combinations of individual amino acids with L-isoleucine, as potential enhancing agents, for MPO microbicidal action in the presence of blood, was therefore examined by following the procedure of Example 5.
The Actual CFU observed for the pair is then divided by the Predicted CFU and multiplied by 100 to calculate the % of Predicted value. This value is then to be compared to the threshold value, discussed in the next section, to determine whether the pair are synergistic, antagonistic, or additive.
Calculation of appropriate threshold values for determination of synergism and antagonism was based upon the variability of replicated CFU survivor measures.

Staphylococcus aureus [2] = experiment: Control: microbicidal activity of the amino acid or analogue alone (no glucose, MPO, glucose oxidase) in the presence of blood; assay type: cell-based; conditions: for log reduction at 5000 µM: Staphylococcus aureus, 1 h, read-out: Log Reduction 60 min
Description: As a control to determine the microbicidal activity of the amino acids alone, the foregoing procedure was followed without replication, except in the absence of glucose, MPO, and glucose oxidase.

[3] = Table 7, amino acid analogue 5 mM, MPO 38 U/ml, GO 33.3 U/ml, blood
[4] = amino acid analogue alone 5 mM, MPO 0, GO 0, no glucose, blood
[5] = MPO 100 μg/mL, AA 20 mM, 30 min
[6] = MPO 100 μg/mL, AA 20 mM, 60 min
[7] = Table 2, amino acid 5 mM (none: 0 mM), MPO 38 U/ml, GO 33.3 U/ml, blood
[8] = Table 10, single amino acid 2.5 mM, in the presence of blood, 50 min
[9] = Table 13, single amino acid 2.5 mM, in the presence of blood, 50 min
[10] = Table 14, single amino acid 2.5 mM, in the presence of blood, 50 min
[11] = Table 19, amino acid (racemic, L- or D-form) 2.5 mM, 50 min
[12] = Table 11, single amino acid 2.5 mM, in the presence of blood, 50 min
[13] = single amino acid 2.5 mM, blood

SMILES: O=C(O)C1CCCNC1 (centres unmarked) [Nipecotic acid]
- Log Reduction 60 min (Staphylococcus aureus [1]; [3]): 7.4
- log reduction at 5000 µM (Staphylococcus aureus [2]): 0

SMILES: COC(=O)[C@@H](N)Cc1ccc(O)cc1.Cl [L-Tyrosine methyl ester hydrochloride]
- Average Viability CFU/ml 60 min (Staphylococcus aureus [1]; [3]): 87000 CFU/ml
- Log Reduction 60 min (Staphylococcus aureus [1]; [3]): 2.4
- log reduction at 5000 µM (Staphylococcus aureus [2]; [4]): 0
- Average Viability CFU/ml 60 min (Staphylococcus aureus [2]; [4]): 20900000 CFU/ml

SMILES: CCOC(=O)C(C)N (centres unmarked) [Ethyl 2-aminopropanoate]
- Average Viability CFU/ml 60 min (Staphylococcus aureus [1]; [3]): 0 CFU/ml
- Log Reduction 60 min (Staphylococcus aureus [1]; [3]): 7.4
- log reduction at 5000 µM (Staphylococcus aureus [2]; [4]): 0
- Average Viability CFU/ml 60 min (Staphylococcus aureus [2]; [4]): 23200000 CFU/ml

SMILES: N[C@@H](CCC(=O)O)C(=O)O [L-Glutamic acid]
- Log 10 (CFU + 1) Survivors (Staphylococcus aureus [1]; MPO 25 μg/mL, AA 5 mM, 30 min): 7.1
- Log 10 (CFU + 1) Survivors (Staphylococcus aureus [1]; MPO 25 μg/mL, AA 5 mM, 60 min): 7.0
- Log 10 (CFU + 1) Survivors (Staphylococcus aureus [1]; MPO 25 μg/mL, AA […], 30 min): 7.3
- Log 10 (CFU + 1) Survivors (Staphylococcus aureus [1]; MPO 25 μg/mL, AA […], 60 min): 6.7
- Log 10 (CFU + 1) Survivors (Staphylococcus aureus [1]; MPO 100 μg/mL, AA 5 mM, 30 min): 6.9
- Log 10 (CFU + 1) Survivors (Staphylococcus aureus [1]; MPO 100 μg/mL, AA 5 mM, 60 min): 2.8
- Log 10 (CFU + 1) Survivors (Staphylococcus aureus [1]; [5]): 7.3
- Log 10 (CFU + 1) Survivors (Staphylococcus aureus [1]; [6]): 6.0
- Average Viability CFU/ml 60 min (Staphylococcus aureus [1]; [7]): 236 CFU/ml
- Log 10 (CFU + 1) Survivors 60 min (Staphylococcus aureus [1]; [7]): 2.4
- Log Reduction 60 min (Staphylococcus aureus [1]; [7]): 5.0
- Average Viability CFU/ml 50 min (Staphylococcus aureus [1]; [8]): 10850000 CFU/ml
- Log Reduction 50 min (Staphylococcus aureus [1]; [8]): 0.4
- Average Viability CFU/ml 50 min (Staphylococcus aureus [1]; [9]): 11800000 CFU/ml
- Log Reduction 50 min (Staphylococcus aureus [1]; [9]): 0.3
- Average Viability CFU/ml 50 min (Staphylococcus aureus [1]; [10]): 13700000 CFU/ml
- Log Reduction 50 min (Staphylococcus aureus [1]; [10]): 0.3
- log reduction at 5000 µM (Staphylococcus aureus [2]): 0
- Average Viability CFU/ml 60 min (Staphylococcus aureus [2]; amino acid alone 5 mM, MPO 0, GO 0, no glucose, blood, without replication): 23700000 CFU/ml

SMILES: CC[C@H](C)[C@H](N)C(=O)O (racemic) [d,l-Isoleucine]
- Average Viability CFU/ml 50 min (Staphylococcus aureus [1]; [11]): 64000 CFU/ml
- Log Reduction 50 min (Staphylococcus aureus [1]; [11]): 2.7
- Predicted vs Actual (Staphylococcus aureus [1]): 39%
- Predicted Average of Amino Acids (Staphylococcus aureus [1]): 162667 CFU
- Actual CFU (Staphylococcus aureus [1]): 64000 CFU

SMILES: CC(C)C(N)C(=O)O (racemic) [d,l-Valine]
- Average Viability CFU/ml 50 min (Staphylococcus aureus [1]; [11]): 685000 CFU/ml
- Log Reduction 50 min (Staphylococcus aureus [1]; [11]): 1.5
- Predicted vs Actual (Staphylococcus aureus [1]): 187%
- Predicted Average of Amino Acids (Staphylococcus aureus [1]): 367250 CFU
- Actual CFU (Staphylococcus aureus [1]): 685000 CFU

SMILES: NC(Cc1ccccc1)C(=O)O (racemic) [d,l-Phenylalanine]
- Average Viability CFU/ml 50 min (Staphylococcus aureus [1]; [11]): 900000 CFU/ml
- Log Reduction 50 min (Staphylococcus aureus [1]; [11]): 1.4
- Predicted vs Actual (Staphylococcus aureus [1]): 9%
- Predicted Average of Amino Acids (Staphylococcus aureus [1]): 9950000 CFU
- synergistic, antagonistic or additive (Staphylococcus aureus [1]; from % of predicted value): synergistic (synergistic combinations with responses less than 25% of the predicted value)
- Actual CFU (Staphylococcus aureus [1]): 900000 CFU

SMILES: COC(=O)[C@@H](C)N [D-Ala methyl ester]
- Average Viability CFU/ml 50 min (Staphylococcus aureus [1]; [12]): 9500000 CFU/ml
- Log Reduction 50 min (Staphylococcus aureus [1]; [12]): 0.5
- Average Viability CFU/ml 50 min (Staphylococcus aureus [1]; [10]): 8850000 CFU/ml
- Log Reduction 50 min (Staphylococcus aureus [1]; [10]): 0.5

SMILES: COC(=O)[C@@H](C)N [D-Alanine methyl ester]
- Log 10 (CFU + 1) Survivors (Staphylococcus aureus [1]; MPO 25 μg/mL, AA 5 mM, 30 min): 0.0
- Log 10 (CFU + 1) Survivors (Staphylococcus aureus [1]; MPO 25 μg/mL, AA 5 mM, 60 min): 0.0
- Log 10 (CFU + 1) Survivors (Staphylococcus aureus [1]; MPO 25 μg/mL, AA […], 30 min): 0.0
- Log 10 (CFU + 1) Survivors (Staphylococcus aureus [1]; MPO 25 μg/mL, AA […], 60 min): 0.0
- Log 10 (CFU + 1) Survivors (Staphylococcus aureus [1]; MPO 100 μg/mL, AA 5 mM, 30 min): 0.0
- Log 10 (CFU + 1) Survivors (Staphylococcus aureus [1]; MPO 100 μg/mL, AA 5 mM, 60 min): 0.0
- Log 10 (CFU + 1) Survivors (Staphylococcus aureus [1]; [5]): 0.0
- Log 10 (CFU + 1) Survivors (Staphylococcus aureus [1]; [6]): 0.0
- Average Viability CFU/ml 50 min (Staphylococcus aureus [1]; [13]): 5450000 CFU/ml
- Log Reduction 50 min (Staphylococcus aureus [1]; [13]): 0.6
